Measurements taken from patent publication US20090062359A1 (AlgoRx, priority 2002, published 2009).
Where “and” joins values, the source holds several entries; their conditions need not be identical. Identical values can stand only once.

Legend:
[1] = system: animal models of inflammatory and neuropathic pain; settings: administered locally; formalin test and spinal nerve ligation; cited from earlier work
[2] = system: subjects undergoing transpositional osteotomy (bunionectomy); test: Bunionectomy efficacy study (Phase II): VAS pain at the operation site and rescue analgesia; format: in vivo, human; settings: for VAS pain score, mean +/− SEM: 1000 μg into the wound, n = 11
Protocol: The primary efficacy endpoint was the proportion of subjects in each treatment group requiring opioid analgesia in the first 24 hours post-operatively. The proportions were compared amongst treatment groups using the Cochran-Haenszel test. Secondary efficacy end points included: i) proportion of subjects in each treatment group requiring opioid analgesia in the first 36 hour period post-operatively (Similarly, the proportions were compared amongst treatment groups using the Cochran-Haenszel test); ii) proportion of subjects in each treatment group requiring opioid analgesia in the 10 day period post-operatively (Similarly, the proportions were compared amongst treatment groups using the Cochran-Haenszel test); iii) time to first usage of opioid analgesia in each treatment group (a survival analysis approach will be used: the product-limit (Kaplan-Meier) method will be applied to time to first usage of opioid analgesia. The median time to first usage of opioid analgesia will be estimated in both treatment groups. Pairwise comparisons will be performed to test for equality of the survival curves between the 2 treatment groups using both the log-rank and the Wilcoxon test); iv) total usage of analgesia in each treatment group (the total usage of analgesia will be compared by an analysis of variance with treatment and center as independent variables. A pairwise comparison will be performed between the treatment groups); and v) VAS assessment of pain at the site of operation in each treatment group (The VAS score at each time point will be compared by an analysis of variance with treatment and center as independent variables. A pairwise comparison will be performed between the treatment groups). […] The efficacy analysis was performed on the data obtained ten days postoperatively. The safety analysis was performed based on the safety data for the entire study, including the 6 week and 12 week follow-up periods. The blind was broken at the time the efficacy analysis was performed. However, the individual treatment assignment was available to the statistical analysis group only. All other personnel involved in the study, including the Investigator, study monitor and proprietary staff, remained blinded until the entire study was completed.
The study was designed to include 40 evaluation subjects. […] Each subject had six (6) study visits: a Screening Day (Day −28 to −1), an Operation Day (Day 0), and four (4) Follow-up visits (scheduled for Days 3, 10 and weeks 6 and 12).
On Operation Day (Day 0) the following was performed: a) Pre-operation: Prior to the initiation of an ankle block, inclusion/exclusion criteria assessment was performed. […] Immediately prior to wound closure, the Investigator slowly dripped the study medication (4 mL) from a syringe into the wound, ensuring even tissue exposure. The wound was then be closed according to normal practices and procedures.
In the 24 hours following administration of study medication, vital signs (supine pulse rate and blood pressure) were recorded at 1, 2, 4 and 24 hours post administration. VAS assessment of pain at the operation site was performed at 1, 4, 8, 12 and 24 hours post administration. In those instances where VAS measurements coincide with blood sampling procedures, the VAS assessment was performed first. […] The quantity of each blood sample was 10 mL. […] Adverse events were spontaneously reported by the subject and recorded. […]

[3] = human, in vivo, 300 ug
Protocol: The pharmacokinetic parameters of Cmax, Tmax, AUC(0−tlast) and t½ were evaluated.

rats = settings: systemic, cited from earlier work
[4] = system: subjects with osteoarthritis of the knee; test: Osteoarthritis of the knee safety study (Phase 1): safety, tolerability and VAS pain after intra-articular infiltration; format: in vivo, human; settings: for patients reporting transient burning pain immediately following instillation: after 2% lignocaine
Protocol: The primary objective of the study was to evaluate the safety and tolerability of intra-articular capsaicin, when co-administered with intra-articular local anesthetic, compared to placebo, in subjects with end-stage osteoarthritis of the knee, already scheduled to receive knee replacements.
The study was designed to include 16 evaluation subjects. […] Sixteen subjects completed the study.
Patients were treated randomly and in double-blind fashion in four treatment groups, with each group having a progressively longer interval between the intra-articular administration of study medication and subsequent total knee replacement (2, 4, 7, and 14 days). […] Gross and microscopic pathology analysis was completed for each treatment group before the next treatment group was treated.
Each subject had 3 study visits: a Screening Day (Day −7 to −1), the Treatment Day (Day 0), and a Post-Treatment Day (scheduled for Day +2, +4, +7, or +14). On the Treatment Day the subject was randomized, pre-treatment evaluation was performed. The patients were brought into the procedure room, and a VAS pain score was taken (0 mm—no pain, 100 mm—extreme pain). Once the patient had marked his or her pain on the card, he/she was prepped for knee cannulation. Once the cannula was placed, the patient received by intra-articular infiltration, 3 mg/kg (maximum dose of 200 mg) of 2% lignocaine into the knee scheduled to be replaced.
VAS pain scores as well as verbal reports were taken immediately following administration, as well as prior to knee replacement surgery. No subjects discontinued from the study due to adverse events.
On the Post-Treatment Day, study evaluation was performed followed by the scheduled knee replacement, with intra-operative bone and soft tissue biopsies performed for subsequent examination. […] This therefore left the 3 placebo and 9 active patients from the 4 day, 7 day, and 14 day cohorts.

[5] = cited from earlier work
patients = settings: Langman et al, Lancet 1994; cited from earlier work

## CNCCCN1c2ccccc2CCc2ccccc21 [desipramine]
[1]
  local antinociceptive action: produced local antinociceptive actions

## COc1cc(CNC(=O)CCCC/C=C/C(C)C)ccc1O [purified capsaicin, N-(4-hydroxy-3-methoxybenzyl)-8-methylnon-trans-6-enamide]
[2]; 1000 μg prior to wound closure, within 72 hours, n=11
  study subjects requiring rescue (opioid rescue): 45%
[2]; 8 hr
  VAS pain score, mean +/− SEM: 5.5 +/− 2.3
[2]; 12 hr
  VAS pain score, mean +/− SEM: 8.2 +/− 3.8
[2]; 24 hr
  VAS pain score, mean +/− SEM: 1.9 +/− 1.0
[2]; 48 hr
  VAS pain score, mean +/− SEM: 5.9 +/− 2.5
[3]
  AUC(0−tlast): 0.49883 ng·h/mL
rats; final doses of 25 mg/kg or less prior to ultra violet radiation
  effect on radiation induced hyperalgesia: prevented radiation induced hyperalgesia
rats; final doses of 50 mg/kg or greater
  effect on pain threshold: pain threshold elevated
[4]; 10 μg capsaicin intra-articular
  patients reporting transient burning pain immediately following instillation: 0 of 4
[4]; 100 μg capsaicin intra-articular
  patients reporting transient burning pain immediately following instillation: 1 of 4
[4]; 100 μg dose group, single subject
  duration of post-administration (hyper)algesic pain: 9 min
[4]; 300 μg capsaicin intra-articular
  patients reporting transient burning pain immediately following instillation: 4 of 4
[4]; 300 μg dose group, individual subjects
  duration of post-administration (hyper)algesic pain: 17 minutes and 25 minutes (2×) and 42 minutes
[4]; 10, 100 and 300 μg intra-articular
  tolerability: well tolerated at all dose levels
[4]; all dose levels
  treatment related systemic side effects: No treatment related systemic side effects were seen
[4]; all dose levels, knee tissue at replacement
  gross and microscopic pathology: normal
[4]; all episodes, 100 μg and 300 μg dose groups
  onset of post-administration (hyper)algesia after administration: ≤ 5 min
[4]; any dose group at any time point
  effect on proprioception at the injected knee: no discernable effect
[4]; burning sensation, 100 μg and 300 μg dose groups
  average duration of post injection hyperalgesia: less than thirty minutes
[4]; capsaicin group (9 active patients, 10-300 μg), 4 day, 7 day and 14 day cohorts
  reduction of VAS pain score, before administration versus day of surgery: 62±14%
[4]; dose levels 10 μg, 100 μg and 300 μg
  treatment related indication of efficacy (VAS): No clear treatment related indication of efficacy
[5]; alcohol, ether, benzene and chloroform
  solubility in organic solvents: freely soluble
[5]; water
  solubility in water: practically insoluble

## CN1C(C(=O)Nc2ccccn2)=C(O)c2ccccc2S1(=O)=O [piroxicam]
patients
  patients experiencing gross bleeding and ulceration: up to 4%

## CN(C)CCC=C1c2ccccc2CCc2ccccc21 [amitriptyline]
[1]
  local antinociceptive action: produced local antinociceptive actions
